Patent US20040102423A1, “Spironolactone and angiotensin II antagonist combination therapy for treatment of congestive heart failure” (G.D. Searle & Co., priority 1995, published 2004)

How the values were obtained:
[1] = target: angiotensin II AT1 receptor; experiment: Assay A: Angiotensin II binding activity, rat uterine membrane preparation, 125I-AII displacement
[2] = test system: pressor response to AII; experiment: Assay C: In vivo intragastric pressor assay response for AII antagonists; set-up: species or system Sprague-Dawley rats; settings: in vivo pressor response
[3] = test system: rabbit aortic rings; experiment: Assay B: In vitro vascular smooth muscle response for AII (antagonist activity, pA2); format: cell-based; settings: Oryctolagus cuniculus, two values in a cell = two determinations
Method: Assay B: In Vitro Vascular Smooth Muscle-Response for AII
The compounds of the invention were tested for antagonist activity in rabbit aortic rings. Male New Zealand white rabbits (2-2.5 kg) were sacrificed using an overdose of pentobarbital and exsanguinated via the carotid arteries. The thoracic aorta was removed, cleaned of adherent fat and connective tissue and then cut into 3-mm ring segments. The endothelium was removed from the rings by gently sliding a rolled-up piece of filter paper into the vessel lumen. The rings were then mounted in a water-jacketed tissue bath, maintained at 37° C., between moveable and fixed ends of a stainless steel wire with the moveable end attached to an FT03 Grass transducer coupled to a Model 7D Grass Polygraph for recording isometric force responses. The bath was filled with 20 ml of oxygenated (95% oxygen/5% carbon dioxide) Krebs solution of the following composition (mM): 130 NaCl, 15 NaHCO3, […], 1.2 NaH2PO4, 1.2 MgSO4, 2.5 CaCl2, and 11.4 glucose. The preparations were equilibrated for one hour before approximately one gram of passive tension was placed on the rings. Angiotensin II concentration-response curves were then recorded (3×10^−10 to 1×10^−5 M). Each concentration of AII was allowed to elicit its maximal contraction, and then AII was washed out repeatedly for 30 minutes before rechallenging with a higher concentration of AII. Aorta rings were exposed to the test antagonist at 10^−5 M for 5 minutes before challenging with AII. Adjacent segments of the same aorta ring were used for all concentration-response curves in the presence or absence of the test antagonist. The effectiveness of the test compound was expressed in terms of pA2 values and were calculated according to H. O. Schild [Br. J. Pharmacol. Chemother., 2, 189-206 (1947)]. The pA2 value is […] which increases the EC50 value for AII by a factor of two. Each test antagonist was evaluated in aorta rings from two rabbits.

[4] = Rattus norvegicus, po, 3 mg/kg intragastrically

Row | IC50 [1] | SMILES | Kb [3] | further results
1 | 6.8 nM | CCCCc1cn(-c2ccccc2CC)c(=O)n1Cc1ccc(-c2ccccc2-c2nnn[nH]2)nc1 [Compound 239] | 13.2 nM | inhibition in vivo at 3 mg/kg [2, 4]: 20%; Assay C Duration ([2]; 3 mg/kg intragastrically): >180 min
2 | 0.87 nM | CCCCc1c(C)n(CCCC)c(=O)n1Cc1ccc(-c2ccccc2-c2nnn[nH]2)cc1 [Compound 148] | 1580 nM | inhibition in vivo at 3 mg/kg ([2]; Rattus norvegicus, intraduodenal, 3 mg/kg intraduodenally): 92%; Assay C Duration ([2]; 3 mg/kg intraduodenally): 20 to 30 min
3 | 37 nM | CCCCc1nn(CC(OCC(=O)OCC)c2ccccc2)c(=O)n1Cc1ccc(-c2ccccc2-c2nn[nH]n2)cc1 (stereo not shown) [Compound 118] | 0.617 nM | inhibition in vivo at 10 mg/kg ([2]; Rattus norvegicus, intraduodenal, 10 mg/kg intraduodenally): 70%; Assay C Duration ([2]; 10 mg/kg intraduodenally): 120 min
4 | 4.4 nM | CCCCc1cn(-c2c(Cl)cccc2Cl)c(=O)n1Cc1ccc(-c2ccccc2-c2nnn[nH]2)nc1 [Compound 232] | 2.57 nM | inhibition in vivo at 3 mg/kg [2, 4]: 70%; Assay C Duration ([2]; 3 mg/kg intragastrically): >180 min
5 |  | CCCCc1nc2c(CCC)nnc(O)c2n1Cc1ccc(-c2ccccc2-c2nnn[nH]2)cc1 [Compound 124] | 0.38 nM | inhibition in vivo at 3 mg/kg [2, 4]: 45%; Assay C Duration ([2]; 3 mg/kg intragastrically): >180 min
6 | 26 nM | CCCCc1nc(C(F)(F)Cc2ccccc2)nn1Cc1ccc(-c2ccccc2-c2nnn[nH]2)cc1 [Compound 62] | 2.04 nM | 
7 | 10 nM | CCCCCCCCc1nc(CCCC)nn1Cc1ccc(-c2ccccc2-c2nnn[nH]2)cc1 [Compound 39] | 13.2 nM | 
8 | 91 nM | CCCCc1nc(CC)n(Cc2ccc(-c3ccccc3C(=O)O)cc2)n1 [Compound 87] | 15.8 nM | 
9 | 101 nM | CCCCc1nc(CCCNC(=O)OC(C)(C)C)n(Cc2ccc(-c3ccccc3-c3nnn[nH]3)cc2)n1 [Compound 78] | 100 nM | 
10 | 230 nM | CCCCc1nn(C/C=C/c2ccccc2)c(=O)n1Cc1ccc(-c2ccccc2-c2nn[nH]n2)cc1 [Compound 116] | 316 nM | 
11 | 47 nM | CCCCn1nc(C(C)=O)nc1Cc1ccc(-c2ccccc2-c2nnn[nH]2)nc1 [Compound 194] | 22.9 nM | 
12 | 9 nM | CCCCc1nc(CC)nn1Cc1ccc(-c2ccccc2C(=O)O)cc1 [Compound 86] | 15.8 nM | 
13 | 6 nM | CCCCc1nc(CCCC)n(Cc2ccc(-c3ccccc3C(=O)OC)cc2)n1 [Compound 12] | 2.19 nM | 
14 | 160 nM | CCCCCn1nc(CCCC)nc1Cc1ccc(-c2ccccc2-c2nnn[nH]2)nc1 [Compound 166] | 26.9 nM | 
15 | 12000 nM | CCCCc1nc(Cl)n(Cc2ccc(-c3ccccc3C(=O)O)cc2)n1 [Compound 19] | 6610 nM | 
16 | 3100 nM | CCCCc1nc(C23CC4CC(CC(C4)C2)C3)nn1Cc1ccc(-c2ccccc2-c2nnn[nH]2)cc1 [Compound 67] | 1320 nM | 
17 | 2300 nM | CCCCc1nc(CCCO)n(Cc2ccc(-c3ccccc3-c3nnn[nH]3)cc2)n1 [Compound 57] | 1000 nM | 
18 | 100 nM | CCCCc1nc(CNC(=O)CCC(NC(C)=O)C(=O)OC(C)(C)C)nn1Cc1ccc(-c2ccccc2-c2nnn[nH]2)cc1 (stereo not shown) [Compound 52] | 7.24 nM | 
19 | 8.7 nM | CCCCc1nc(CC2CCCCC2)nn1Cc1ccc(-c2ccccc2-c2nnn[nH]2)cc1 [Compound 85] | 1.26 nM | 
20 | 72 nM | CCCCc1cn(-c2c(C(C)C)cccc2C(C)C)c(=O)n1Cc1ccc(-c2ccccc2-c2nnn[nH]2)nc1 [Compound 246] | 34.7 nM | 
21 | 54 nM | CCCCc1nc(CC)nn1Cc1ccc(-c2ccccc2-c2nnn[nH]2)cc1 [Compound 50] | 19.5 nM | 
22 | 61 nM | CCCCc1nc(C(=O)O)nn1Cc1ccc(-c2ccccc2-c2nnn[nH]2)cc1 [Compound 63] | 17 nM | 
23 | 36 nM | CCCCCn1nc(CCCC)n(Cc2ccc(-c3ccccc3-c3nn[nH]n3)cc2)c1=O [Compound 101] | 15.8 nM | 
24 | 150 nM | CCCCc1cn(-c2c(C)cc(C(C)(C)C)cc2C)c(=O)n1Cc1ccc(-c2ccccc2-c2nnn[nH]2)nc1 [Compound 244] | 67.6 nM | 
25 | 1.1 nM | CCCc1cn(CCC)c(=O)n1Cc1ccc(-c2ccccc2-c2nnn[nH]2)cc1 [Compound 149] | 794 nM | 
26 | 83 nM | CCCCc1nc(CC23CC4CC(CC(C4)C2)C3)n(Cc2ccc(-c3ccccc3-c3nnn[nH]3)cc2)n1 [Compound 72] | 776 nM | 
27 | 34 nM | CCCCc1cn(CCCC)c(=O)n1Cc1ccc(-c2ncccc2-c2nnn[nH]2)cc1 [Compound 235] | 72.4 nM | 

Row | IC50 [1] | SMILES | Kb [3] | further results
28 | 310 nM | CCCCn1nc(C(F)(F)CC)nc1Cc1ccc(-c2ccccc2-c2nnn[nH]2)nc1 [Compound 179] | 214 nM | 
29 | 66 nM | CCCCc1nn(CC(=O)OC(C)(C)C)c(=O)n1Cc1ccc(-c2ccccc2-c2nn[nH]n2)cc1 [Compound 95] | 6.31 nM | 
30 | 84 nM | CCCCc1cn(-c2c(C)cccc2C)c(=O)n1Cc1ccc(-c2ccccc2-c2nnn[nH]2)nc1 [Compound 233] | 3.09 nM | 
31 | 16 nM | CCCCc1nc(CC2CCCCC2)n(Cc2ccc(-c3ccccc3-c3nnn[nH]3)cc2)n1 [Compound 84] | 79.4 nM | 
32 | 15000 nM | CCCCc1nc(C2CCCCC2)nn1Cc1ccc(-c2ccccc2-c2nnn[nH]2)cc1 [Compound 77] | 1700 nM | 
33 | 21 nM | CCCCCCn1nc(CCCC)n(Cc2ccc(-c3ccccc3-c3nn[nH]n3)cc2)c1=O [Compound 96] | 10 nM | 
34 | 0.27 nM | CCCCc1nc(Cc2ccc(-c3ccccc3-c3nnn[nH]3)cc2)n(CCCC)n1 [Compound 139] | 501 nM | 
35 | 17 nM | CCCCc1nc(CCCC)n(Cc2ccc(-c3ccccc3C(=O)O)cc2)n1 [Compound 13] | 2 nM | 
36 | 460 nM | CCCCc1nc(C(F)(F)CCC)n(Cc2ccc(-c3ccccc3-c3nnn[nH]3)cc2)n1 [Compound 22] | 251 nM | 
37 | 2000 nM | CCCCc1nn(C(CC(=O)OCC)C(=O)c2ccccc2)c(=O)n1Cc1ccc(-c2ccccc2-c2nn[nH]n2)cc1 (stereo not shown) [Compound 112] | 6310 nM | 
38 | 790 nM | CCCCc1nc(CC23CC4CC(CC(C4)C2)C3)nn1Cc1ccc(-c2ccccc2-c2nnn[nH]2)cc1 [Compound 73] | 22.4 nM | 
39 | 180 nM | CCCCn1nc(C(F)F)nc1Cc1ccc(-c2ccccc2-c2nnn[nH]2)nc1 [Compound 174] | 51.3 nM | 
40 | 0.052 nM | CCCCc1cn(CCCC)c(=O)n1Cc1ccc(-c2ccccc2-c2nnn[nH]2)cc1 [Compound 143] | 20 nM | 
41 | 30 nM | CCCCc1nn(CC(=O)C23CC4CC(CC(C4)C2)C3)c(=O)n1Cc1ccc(-c2ccccc2-c2nn[nH]n2)cc1 [Compound 91] | 2.51 nM | 
42 | 4.9 nM | CCCCc1nc(CCCNC(=O)OC(C)(C)C)nn1Cc1ccc(-c2ccccc2-c2nnn[nH]2)cc1 [Compound 79] | 0.631 nM | 
43 | 4.4 nM | CCCCc1nn(CCC2CCCCC2)c(=O)n1Cc1ccc(-c2ccccc2-c2nn[nH]n2)cc1 [Compound 100] | 0.398 nM | 
44 | 0.11 nM | CCCCn1nc(C(F)(F)CCC)nc1Cc1ccc(-c2ccccc2-c2nnn[nH]2)cc1 [Compound 141] | 9.55 nM | 
45 | 10 nM | CCCCCc1nc(CCCCC)n(Cc2ccc(-c3ccccc3-c3nnn[nH]3)cc2)n1 [Compound 24] | 27.5 nM | 
46 | 6.5 nM | CCCCc1nc(CCC(=O)O)nn1Cc1ccc(-c2ccccc2-c2nnn[nH]2)cc1 [Compound 74] | 2.75 nM | 
47 | 5.6 nM | CCCCc1nn(CCCC)c(=O)n1Cc1ccc(-c2ccccc2-c2nnn[nH]2)cc1 [Compound 90] | 1 nM | 
48 | 21 nM | CCCCc1nc(CN)n(Cc2ccc(-c3ccccc3-c3nnn[nH]3)cc2)n1 [Compound 47] | 14.1 nM | 
49 | 110 nM | CCCCc1nc(CNC(=O)OC(C)(C)C)nn1Cc1ccc(-c2ccccc2-c2nnn[nH]2)cc1 [Compound 46] | 158 nM | 
50 | 340 nM | CCCCc1nc(CCc2ccccc2)nn1Cc1ccc(-c2ccccc2-c2nnn[nH]2)cc1 [Compound 37] | 126 nM | 
51 | 270 nM | CCCCc1nc(-c2ccccc2Cl)n(Cc2ccc(-c3ccccc3-c3nnn[nH]3)nc2)n1 [Compound 279] | 8.71 nM | 
52 | 15 nM | CCCCc1nn(/C(Cc2ccccc2)=C(/OCc2ccccc2)c2ccccc2)c(=O)n1Cc1ccc(-c2ccccc2-c2nn[nH]n2)cc1 [Compound 104] | 10 nM | 
53 | 970 nM | CCCCc1nc(Cl)nn1Cc1ccc(-c2ccccc2-c2nnn[nH]2)cc1 [Compound 18] | 724 nM | 
